Assay results from ChEMBL document CHEMBL1127240, “Structure-activity relationships of taxol: synthesis and biological evaluation of C2 taxol analogs” (Bioorg Med Chem Lett, 1994).

Tests used:
HCT-116 = assay: Compound was tested for inhibition of proliferation of human colon cancer cell line (HCT116); type: functional, cell-based
[1] = molecular target: Tubulin alpha chain (Sus scrofa) (UniProt P02550); assay: Compound was tested for effective concentration for tubulin polymerization expressed as ratio of compound relative to taxol (EC0.01 at 5 uM); type: functional
Sequence of Tubulin alpha chain (Sus scrofa) (P02550 whole entry, looked up): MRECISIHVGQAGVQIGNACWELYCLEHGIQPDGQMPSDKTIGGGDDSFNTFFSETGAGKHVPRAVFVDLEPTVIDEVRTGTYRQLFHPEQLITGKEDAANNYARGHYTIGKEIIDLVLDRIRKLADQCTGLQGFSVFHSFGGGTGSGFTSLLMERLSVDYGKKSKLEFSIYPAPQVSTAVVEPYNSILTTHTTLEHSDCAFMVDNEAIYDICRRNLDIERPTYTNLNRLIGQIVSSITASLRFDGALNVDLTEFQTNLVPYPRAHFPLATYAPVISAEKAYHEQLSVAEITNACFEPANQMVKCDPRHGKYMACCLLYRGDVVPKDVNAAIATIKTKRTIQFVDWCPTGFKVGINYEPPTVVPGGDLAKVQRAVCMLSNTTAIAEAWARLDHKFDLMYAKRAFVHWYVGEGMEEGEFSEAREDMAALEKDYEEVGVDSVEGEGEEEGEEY

Row | IC50 (HCT-116) [nM] | Ratio [1] | Structure (SMILES)
1 | > 88 | > 250 | COc1ccc(C(=O)O[C@H]2C3[C@](C)(C(=O)[C@H](OC(C)=O)C4=C(C)[C@@H](OC(=O)[C@H](O)[C@@H](NC(=O)c5ccccc5)c5ccccc5)C[C@]2(O)C4(C)C)[C@@H](O)C[C@H]2OC[C@@]32OC(C)=O)cc1 (some centres not stated)
2 | > 91 | 130 | CC(=O)O[C@H]1C(=O)[C@@]2(C)C([C@H](OC(=O)C3CCCCC3)[C@]3(O)C[C@H](OC(=O)[C@H](O)[C@@H](NC(=O)c4ccccc4)c4ccccc4)C(C)=C1C3(C)C)[C@]1(OC(C)=O)CO[C@@H]1C[C@@H]2O (some centres not stated)
3 | 2 | – | CC(=O)O[C@H]1C(=O)[C@@]2(C)[C@H]([C@H](OC(=O)c3ccccc3)[C@]3(O)C[C@H](OC(=O)[C@H](O)[C@@H](NC(=O)c4ccccc4)c4ccccc4)C(C)=C1C3(C)C)[C@]1(OC(C)=O)CO[C@@H]1C[C@@H]2O [PACLITAXEL]

Row | Structure (SMILES) | IC50 (HCT-116) [nM] | Ratio [1]
4 | CC(=O)O[C@H]1C(=O)[C@@]2(C)C([C@H](OC(=O)c3ccc([N+](=O)[O-])cc3)[C@]3(O)C[C@H](OC(=O)[C@H](O)[C@@H](NC(=O)c4ccccc4)c4ccccc4)C(C)=C1C3(C)C)[C@]1(OC(C)=O)CO[C@@H]1C[C@@H]2O (some centres not stated) | > 85 | > 250
